Results: US20100197584A1, “USE OF CURCUMIN TO BLOCK BRAIN TUMOR FORMATION IN MICE” (Research Foundations of the City University of- New York, priority 2007, published 2010)

Tests used:
[1] = tested on: N18 (mouse neuroblastoma) cells; test: Cell viability assay using MTT, N18; assay type: cell-based; details: 25 μM and 50 μM, 48 h or 96 h, versus control cells (FIG. 6c)
Method: Cells. B16F10 (mouse melanoma), GL261 (mouse glioma), HOG (human oligodendroglioma), A549 (human lung cancer), and N18 (mouse neuroblastoma) cells were cultured separately in DMEM containing 10% (v/v) fetal bovine serum and 1% (v/v) penicillin-streptomycin (PS) and allowed to grow to 40% confluence in a 96-well plate.
Curcumin Treatment. Two hours before drug treatment, the medium in each well was replaced with 200 μl Neurobasal medium supplemented with 2% (v/v) B27 and 1% (v/v) PS (Drug-treatment Medium). A stock solution (40 mM) of curcumin was prepared in sterile dimethyl sulfoxide (DMSO) (Example 1). Through serial dilution of each stock solution in Drug-treatment Medium, the following concentrations were obtained: 20 μM and 50 μM (for caspase 3/7 assays) or 25 μM and 50 μM (for MTT assays). […] Additionally, the background absorbance was determined from parallel wells containing only the Drug-treatment Medium plus a particular concentration of the drug (no cells).
Cell Viability Assay Using MTT (3-(4,5-Dimethylthiazolyl-2)-2,5-Diphenyltetrazolium Bromide). […] Absorbance was measured at 570 nm using a 96-well multi scanner auto-reader with the extraction buffer used as blank. For curcumin samples, the absorbance obtained from the corresponding curcumin plus medium samples was subtracted.

[2] = tested on: B16F10 mouse melanoma cells; test: Brain tumor formation (B16F10 cells injected into right front brain), tail vein curcumin; assay type: in vivo, C57BL mouse
Method: Generation of Tumors. The mice were given food and water ad libitum and subjected to 12 hour dark/12 hour light cycles. To generate brain tumors in mice, B16F10 mouse melanoma cells or GL261 mouse glioma cells (1000 cells in 5 μl PBS per C57BL mouse) were injected into the right front brain [coordinates: with respect to the Bregma (in mm) AP=2.5; L=−1.1; D=1.5] at the rate of 1 μl per minute using a stereotaxic set-up (KDS Model 310plus infusion-withdrawal syringe pump) (Paxinos, G., and Franklin, K. B. J., The mouse brain in stereotaxic coordinates. 2nd ed. 2001, New York: Academic Press). Before the cell injection, the mouse was anesthetized by injecting (sc) xylazine (10 mg/Kg) and ketamine (100 mg/Kg), the head was shaved, and then the head was immobilized on a Stoelting sterotaxic frame. The mouse was determined to be in deep anesthesia by checking for regular, relaxed respiration and the lack of response to tail/toe pinch before its head was immobilized. The head was cleaned with 70% ethanol and then, using a sterile scalpel, a midline incision was made and subcutaneous muscle and fascia retracted to expose the skull. A hole was made in the skull with a dental drill and the cells injected as described above using a Hamilton syringe fitted to the syringe pump. Under the described condition of anesthesia, the mouse remains unconscious for about 90 min. The total time taken for immobilization of the mouse, exposure of the skull, and injection was about 30 min. Thus, the total time required from the injection of anesthetics to the completion of surgery was less than one hour. After the injection, the hole in the skull was sealed with sterile bone wax and the skin and muscle placed back in place with appropriate 7-mm stainless steel clips (Reflex Skin closure system; Cellpoint Scientific). For wound healing, a topical antibiotic (Triple Antibiotic, containing Polymyxin B, Bacitracin, and Neomycin) was applied and for post-operative care the animal was kept in a warm blanket at 35-37° C. taking precautions to avoid thermal injury. On the first day after surgery (day 2), a sterile, 37° C. solution of physiologic saline was administered (IP) at the dose of 1 ml/100 g body weight. The animals were then caged individually with access to food and water and kept under close monitoring. The mice also received acetaminophen (Tylenol syrup) 1 mg/ml in drinking water daily until they returned to complete normalcy in terms of both behavior and appearance (body weight; reduced locomotion, vocalization, lack of grooming, wound scratching; and signs inflammation at the surgical site).
Curcumin Treatment. The control mice received, aseptically, the carrier (3% DMSO in 200 μl PBS) daily from the next day (day 2), through the tail vein after placing the mouse in a restraining cage without anesthetics. Other mice similarly received 667 μM curcumin in 200 μl of PBS containing 3% DMSO daily from the next day (day 2) for 18 days (through day 19) through the tail vein. Other mice received the same curcumin solution daily from day 4, day 6, day 8 or day 10. One mouse (designated Mouse 2) received a single dose of curcumin (5 μl of 667 μM solution) five minutes after injection of B16F10 cells into the brain, using the same stereotaxic set-up.
Monitoring and Sample Preparation. The effects of brain tumor on movement generally appeared in about two to three weeks. The mice were monitored for disorders in movement using an open field VIDEO monitoring set up (10 min per mouse). Blood was collected from the saphenous vein to test for markers for cancer and cell and organ damage. Additionally, MRI was performed on the mice to monitor the growth and progression of brain tumors. […]

phospho-Akt = test: Western blot of B16F10 cells, phospho-Akt; assay type: cell-based, mouse; details: 50 μM (FIG. 9)
Method: B16F10 cells were cultured in 10-cm plates and then treated in duplicate with carrier or curcumin (50 μM). Following treatment for appropriate time periods, the cells were washed with PBS, lysed in RIPA buffer (PBS containing 1% Nonidet P40, 0.5% sodium deoxycholate, 0.1% SDS, 0.5 mM Na3VO4 plus freshly added PMSF and protease inhibitor cocktail; Boeringer-Roche), and then 20 μg of lysate protein (per lane) were analyzed by SDS-10% PAGE and Western blot analysis. Antibody concentrations used were: anti-phospho-NF-κB (1:1000) (Santa Cruz Biotechnology, Santa Cruz, Calif.), anti-phospho-Akt (1:5000) (Cell Signaling, CA), anti-cyclin D1 (1:1000) (Cell Signaling, CA), anti-BclXL (1:500) (Santa Cruz Biotechnology), anti-VEGF (1:500) (Santa Cruz Biotechnology), and anti-β-actin (1:1000) (Sigma, St. Louis, Mo.).

For COc1cc(/C=C/C(=O)CC(=O)/C=C/c2ccc(O)c(OC)c2)ccc1O [curcumin], the “cell viability (MTT)” value [1] was “dramatic decrease”, the “brain tumor formation and morbidity” value ([2]; B16F10 cells in right frontal lobe, 200 μl of 667 μM curcumin daily, tail vein, day 2 to day 19) was “blocked” and the “tissue disintegration (hematoxylin and eosin staining of brain tissue)” value ([2]; curcumin-injected mice (FIG. 8B)) was “completely blocked”. For the same molecule, the movement ([2]; daily curcumin injections, day 20) was “normal movement”, the movement and behavior ([2]; daily curcumin injections, days 21, 28, and 39) was “normal movement and behavior” and the “tumors in the right frontal lobe” value ([2]; single dose (5 μl of 667 μM, into brain five minutes after B16F10 cells; Mouse 2)) was “Large tumors were observed”. For the same molecule, the condition of mouse ([2]; single dose (5 μl of 667 μM, into brain five minutes after B16F10 cells; Mouse 2), day 21) was “hunched up and morbid” and the “phospho-Akt (Western blot)” value (phospho-Akt) was “suppression”.
